# Reference: PMC6409085, “Three odorant-binding proteins are involved in the behavioral response of Sogatella furcifera to rice plant volatiles” (PeerJ, 2019)
# Values joined by “and” are separate entries in the source; they are usually repeats but may differ in a detail not shown here. Identical values can stand only once.
# What was measured:
# [1] = test system: S. furcifera adults; test: Y-tube olfactometer behavioral trials; format: in vivo, Sogatella furcifera; conditions: odorant 50 µL/L vs hexane
# In short: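 Single S. furcifera adults (2 days post-emergence, starved 0.5 h) chose between odorant (100 µL of 50 µL/L on filter paper) and hexane control in a glass Y-tube, charcoal-filtered humidified air 300 mL/min per arm, 25 ± 1 °C, 50% RH. Choice scored if insect passed half an arm and stayed >1 min within 10 min; 45 insects per compound, chi-squared test.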
# [2] = target: SfurOBP11 (Sogatella furcifera, UniProt V5T6E3); test: biochemical; format: binding
# Sequence of SfurOBP11 (V5T6E3 entry or part of it): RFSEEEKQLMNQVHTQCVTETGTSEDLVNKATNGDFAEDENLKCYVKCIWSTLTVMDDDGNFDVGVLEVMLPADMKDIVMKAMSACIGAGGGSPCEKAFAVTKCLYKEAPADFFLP
# In short: (§1)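 Fluorescence competitive binding used 2.0 µM SfurOBP and 2.0 µM 1-NPN reporter in 50 mM Tris-HCl, pH 7.4, with odorants at 2-20 µM. Fluorescence was read 2 min after adding the odorant (excitation 337 nm, emission 390-490 nm), in triplicate. Ki was calculated from IC50 as IC50/(1 + [1-NPN]/K1-NPN).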
# [3] = target: SfurOBP3 (Sogatella furcifera, UniProt V5T818); test: biochemical; format: binding; conditions: for Fluorescence competitive binding assay, fluorescence intensity: OBP3, three replicate columns
# Sequence of SfurOBP3 (V5T818 entry or part of it): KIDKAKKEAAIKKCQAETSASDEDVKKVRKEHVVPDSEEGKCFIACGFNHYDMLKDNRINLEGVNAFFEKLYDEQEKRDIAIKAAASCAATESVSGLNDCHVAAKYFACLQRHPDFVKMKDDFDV
# In short: as §1
# [4] = target: SfurOBP2 (Sogatella furcifera, UniProt V5T759); test: biochemical; format: binding
# Sequence of SfurOBP2 (V5T759 entry or part of it): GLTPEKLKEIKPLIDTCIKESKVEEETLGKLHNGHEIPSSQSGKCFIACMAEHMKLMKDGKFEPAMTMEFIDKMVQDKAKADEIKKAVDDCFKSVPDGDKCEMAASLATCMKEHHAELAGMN
# In short: as §1
# [5] = target: SfurOBP1 (Sogatella furcifera, UniProt V5T8N5); test: biochemical; format: binding; conditions: for Fluorescence competitive binding assay, fluorescence intensity: OBP1, three replicate columns
# Sequence of SfurOBP1 (V5T8N5 entry or part of it): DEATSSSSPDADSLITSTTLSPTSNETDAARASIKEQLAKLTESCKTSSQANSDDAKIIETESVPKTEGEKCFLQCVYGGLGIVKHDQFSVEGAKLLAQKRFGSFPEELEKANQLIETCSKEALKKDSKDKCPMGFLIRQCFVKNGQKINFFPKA
# In short: as §1
structure (smiles),measurement,setting,value
"C=C(C)C1CC=C(C)CC1 (single isomer, unassigned; (+)) [(+)-limonene]",behavioral response of S. furcifera (in words),[1],strongly attracted
same,number of insects choosing hexane arm,[1]; adults,7
same,number of insects choosing volatilies arm,[1]; adults,16
same,number of insects failed (no choice),[1]; adults,17
same,IC50,"[2]; SfurOBP11, protein and 1-NPN both 2.0 µM, competitor 2-20 µM, read-out: IC50",> 20 µM
same,"Fluorescence intensity, fluorescence competitive binding assay, OBP11","[2]; ligand concentration 2, replicate 1",20185
same,"Fluorescence intensity, fluorescence competitive binding assay, OBP11","[2]; ligand concentration 2, replicate 2",20635
same,"Fluorescence intensity, fluorescence competitive binding assay, OBP11","[2]; ligand concentration 2, replicate 3",20374
same,"Fluorescence intensity, fluorescence competitive binding assay, OBP11","[2]; ligand concentration 4, replicate 1",19119
same,"Fluorescence intensity, fluorescence competitive binding assay, OBP11","[2]; ligand concentration 4, replicate 2",21150
same,"Fluorescence intensity, fluorescence competitive binding assay, OBP11","[2]; ligand concentration 4, replicate 3",19404
same,"Fluorescence intensity, fluorescence competitive binding assay, OBP11","[2]; ligand concentration 6, replicate 1",20124
same,"Fluorescence intensity, fluorescence competitive binding assay, OBP11","[2]; ligand concentration 6, replicate 2",20072
same,"Fluorescence intensity, fluorescence competitive binding assay, OBP11","[2]; ligand concentration 6, replicate 3",19868
same,"Fluorescence intensity, fluorescence competitive binding assay, OBP11","[2]; ligand concentration 8, replicate 1",18585
same,"Fluorescence intensity, fluorescence competitive binding assay, OBP11","[2]; ligand concentration 8, replicate 2",21246
same,"Fluorescence intensity, fluorescence competitive binding assay, OBP11","[2]; ligand concentration 8, replicate 3",19916
same,"Fluorescence intensity, fluorescence competitive binding assay, OBP11","[2]; ligand concentration 10, replicate 1",19564
same,"Fluorescence intensity, fluorescence competitive binding assay, OBP11","[2]; ligand concentration 10, replicate 2",19568
same,"Fluorescence intensity, fluorescence competitive binding assay, OBP11","[2]; ligand concentration 10, replicate 3",19649
same,"Fluorescence intensity, fluorescence competitive binding assay, OBP11","[2]; ligand concentration 12, replicate 1",19387
same,"Fluorescence intensity, fluorescence competitive binding assay, OBP11","[2]; ligand concentration 12, replicate 2",19954
same,"Fluorescence intensity, fluorescence competitive binding assay, OBP11","[2]; ligand concentration 12, replicate 3",20491
same,"Fluorescence intensity, fluorescence competitive binding assay, OBP11","[2]; ligand concentration 14, replicate 1",19217
same,"Fluorescence intensity, fluorescence competitive binding assay, OBP11","[2]; ligand concentration 14, replicate 2",19676
same,"Fluorescence intensity, fluorescence competitive binding assay, OBP11","[2]; ligand concentration 14, replicate 3",19052
same,"Fluorescence intensity, fluorescence competitive binding assay, OBP11","[2]; ligand concentration 16, replicate 1",18294
same,"Fluorescence intensity, fluorescence competitive binding assay, OBP11","[2]; ligand concentration 16, replicate 2",18202
same,"Fluorescence intensity, fluorescence competitive binding assay, OBP11","[2]; ligand concentration 16, replicate 3",18385
same,"Fluorescence intensity, fluorescence competitive binding assay, OBP11","[2]; ligand concentration 18, replicate 1",17514
same,"Fluorescence intensity, fluorescence competitive binding assay, OBP11","[2]; ligand concentration 18, replicate 2",18012
same,"Fluorescence intensity, fluorescence competitive binding assay, OBP11","[2]; ligand concentration 18, replicate 3",18287
same,"Fluorescence intensity, fluorescence competitive binding assay, OBP11","[2]; ligand concentration 20, replicate 1",16634
same,"Fluorescence intensity, fluorescence competitive binding assay, OBP11","[2]; ligand concentration 20, replicate 2",17062
same,"Fluorescence intensity, fluorescence competitive binding assay, OBP11","[2]; ligand concentration 20, replicate 3",17452
same,"Fluorescence competitive binding assay, fluorescence intensity",[3]; ligand concentration 2,51848 and 49151 and 50500
same,"Fluorescence competitive binding assay, fluorescence intensity",[3]; ligand concentration 4,50802 and 50041 and 48259
same,"Fluorescence competitive binding assay, fluorescence intensity",[3]; ligand concentration 6,50158 and 49686 and 49223
same,"Fluorescence competitive binding assay, fluorescence intensity",[3]; ligand concentration 8,48228 and 50693 and 49450
same,"Fluorescence competitive binding assay, fluorescence intensity",[3]; ligand concentration 10,46402 and 47349 and 46178
same,"Fluorescence competitive binding assay, fluorescence intensity",[3]; ligand concentration 12,39434 and 38976 and 40288
same,"Fluorescence competitive binding assay, fluorescence intensity",[3]; ligand concentration 14,38805 and 38818 and 38804
same,"Fluorescence competitive binding assay, fluorescence intensity",[3]; ligand concentration 16,34272 and 34325 and 34139
same,"Fluorescence competitive binding assay, fluorescence intensity",[3]; ligand concentration 18,33102 and 34070 and 35044
same,"Fluorescence competitive binding assay, fluorescence intensity",[3]; ligand concentration 20,32236 and 31361 and 31799
same,IC50,"[3]; SfurOBP3, protein and 1-NPN both 2.0 µM, competitor 2-20 µM, read-out: IC50",> 20 µM
same,IC50,"[4]; SfurOBP2, protein and 1-NPN both 2.0 µM, competitor 2-20 µM, read-out: IC50",> 20 µM
same,"Fluorescence competitive binding assay, OBP2 (raw fluorescence reading)","[4]; ligand concentration 2 (unit not given), replicate column 1 of 3",18785
same,"Fluorescence competitive binding assay, OBP2 (raw fluorescence reading)","[4]; ligand concentration 2 (unit not given), replicate column 2 of 3",17646
same,"Fluorescence competitive binding assay, OBP2 (raw fluorescence reading)","[4]; ligand concentration 2 (unit not given), replicate column 3 of 3",18955
same,"Fluorescence competitive binding assay, OBP2 (raw fluorescence reading)","[4]; ligand concentration 4 (unit not given), replicate column 1 of 3",19168
same,"Fluorescence competitive binding assay, OBP2 (raw fluorescence reading)","[4]; ligand concentration 4 (unit not given), replicate column 2 of 3",18029
same,"Fluorescence competitive binding assay, OBP2 (raw fluorescence reading)","[4]; ligand concentration 4 (unit not given), replicate column 3 of 3",18599
same,"Fluorescence competitive binding assay, OBP2 (raw fluorescence reading)","[4]; ligand concentration 6 (unit not given), replicate column 1 of 3",18726
same,"Fluorescence competitive binding assay, OBP2 (raw fluorescence reading)","[4]; ligand concentration 6 (unit not given), replicate column 2 of 3",17846
same,"Fluorescence competitive binding assay, OBP2 (raw fluorescence reading)","[4]; ligand concentration 6 (unit not given), replicate column 3 of 3",18376
same,"Fluorescence competitive binding assay, OBP2 (raw fluorescence reading)","[4]; ligand concentration 8 (unit not given), replicate column 1 of 3",17673
same,"Fluorescence competitive binding assay, OBP2 (raw fluorescence reading)","[4]; ligand concentration 8 (unit not given), replicate column 2 of 3",18323
same,"Fluorescence competitive binding assay, OBP2 (raw fluorescence reading)","[4]; ligand concentration 8 (unit not given), replicate column 3 of 3",17474
same,"Fluorescence competitive binding assay, OBP2 (raw fluorescence reading)","[4]; ligand concentration 10 (unit not given), replicate column 1 of 3",16329
same,"Fluorescence competitive binding assay, OBP2 (raw fluorescence reading)","[4]; ligand concentration 10 (unit not given), replicate column 2 of 3",16489
same,"Fluorescence competitive binding assay, OBP2 (raw fluorescence reading)","[4]; ligand concentration 10 (unit not given), replicate column 3 of 3",16675
same,"Fluorescence competitive binding assay, OBP2 (raw fluorescence reading)","[4]; ligand concentration 12 (unit not given), replicate column 1 of 3",16493
same,"Fluorescence competitive binding assay, OBP2 (raw fluorescence reading)","[4]; ligand concentration 12 (unit not given), replicate column 2 of 3",16176
same,"Fluorescence competitive binding assay, OBP2 (raw fluorescence reading)","[4]; ligand concentration 12 (unit not given), replicate column 3 of 3",16335
same,"Fluorescence competitive binding assay, OBP2 (raw fluorescence reading)","[4]; ligand concentration 14 (unit not given), replicate column 1 of 3",13873
same,"Fluorescence competitive binding assay, OBP2 (raw fluorescence reading)","[4]; ligand concentration 14 (unit not given), replicate column 2 of 3",13950
same,"Fluorescence competitive binding assay, OBP2 (raw fluorescence reading)","[4]; ligand concentration 14 (unit not given), replicate column 3 of 3",13912
same,"Fluorescence competitive binding assay, OBP2 (raw fluorescence reading)","[4]; ligand concentration 16 (unit not given), replicate column 1 of 3",12506
same,"Fluorescence competitive binding assay, OBP2 (raw fluorescence reading)","[4]; ligand concentration 16 (unit not given), replicate column 2 of 3",13445
same,"Fluorescence competitive binding assay, OBP2 (raw fluorescence reading)","[4]; ligand concentration 16 (unit not given), replicate column 3 of 3",12627
same,"Fluorescence competitive binding assay, OBP2 (raw fluorescence reading)","[4]; ligand concentration 18 (unit not given), replicate column 1 of 3",13201
same,"Fluorescence competitive binding assay, OBP2 (raw fluorescence reading)","[4]; ligand concentration 18 (unit not given), replicate column 2 of 3",13156
same,"Fluorescence competitive binding assay, OBP2 (raw fluorescence reading)","[4]; ligand concentration 18 (unit not given), replicate column 3 of 3",13110
same,"Fluorescence competitive binding assay, OBP2 (raw fluorescence reading)","[4]; ligand concentration 20 (unit not given), replicate column 1 of 3",12573
same,"Fluorescence competitive binding assay, OBP2 (raw fluorescence reading)","[4]; ligand concentration 20 (unit not given), replicate column 2 of 3",13554
same,"Fluorescence competitive binding assay, OBP2 (raw fluorescence reading)","[4]; ligand concentration 20 (unit not given), replicate column 3 of 3",12438
same,"Fluorescence competitive binding assay, fluorescence intensity",[5]; ligand concentration 2 (μM),5110 and 5104 and 5112
same,"Fluorescence competitive binding assay, fluorescence intensity",[5]; ligand concentration 4 (μM),5716 and 6377 and 5308
same,"Fluorescence competitive binding assay, fluorescence intensity",[5]; ligand concentration 6 (μM),6462 and 7662 and 6319
same,"Fluorescence competitive binding assay, fluorescence intensity",[5]; ligand concentration 8 (μM),6113 and 5754 and 14807
same,"Fluorescence competitive binding assay, fluorescence intensity",[5]; ligand concentration 10 (μM),5995 and 6375 and 7413
same,"Fluorescence competitive binding assay, fluorescence intensity",[5]; ligand concentration 12 (μM),5970 and 7970 and 8226
same,"Fluorescence competitive binding assay, fluorescence intensity",[5]; ligand concentration 14 (μM),5770 and 8418 and 5488
same,"Fluorescence competitive binding assay, fluorescence intensity",[5]; ligand concentration 16 (μM),4972 and 5953 and 5038
same,"Fluorescence competitive binding assay, fluorescence intensity",[5]; ligand concentration 18 (μM),6525 and 7403 and 8592
same,"Fluorescence competitive binding assay, fluorescence intensity",[5]; ligand concentration 20 (μM),7343 and 8136 and 7739
same,IC50,"[5]; SfurOBP1, protein and 1-NPN both 2.0 µM, competitor 2-20 µM, read-out: IC50",> 20 µM
